Assay results: patent publication US20090074895A1, “COMPOSITION AND USES THEREOF” (VANADIS BIOSCIENCE LTD, priority 2005, published 2009)
Entries after “also recorded” stand apart in the source; their conditions may differ.

Columns and labels:
Assay type in all cases: in vivo, rat
[1] = system: normoglycaemic Wistar rats; assay: Blood glucose and oral glucose tolerance test (OGTT) after 5 days oral treatment, normoglycaemic rats; settings: n = 8; for Glucose blood concentration, After OGTT: 30 minutes after OGTT (glucose 4 g/kg orally) after the 5th dose; for Glucose blood concentration, After treatment (one dose daily for 5 days): MKH 4 mg/kg, stevioside 20 mg/kg orally per day, before OGTT; for Glucose blood concentration, Before treatment: baseline of the group before treatment
Procedure: (§1) In this study white, adult male Wistar rats with average weights between 200 to 300 grams were used. During the study, the animals had free access to food and water and were exposed to changes of dark and light every 12 hours. Access to the food was restricted 12 hours before measurement of glucose blood level with free access to water.
(§2) The experiment was performed on a normoglycaemic group (Group 1, 32 rats, 8 per treatment) and diabetic rats (Group 2, 32 rats, 8 per treatment). For the diabetic rat experiments diabetes was induced with intraperitoneal injection of alloxan 100 mg/kg. Alloxan is very well verified diabetogenic substance for inducing diabetes in rats and other animal species (rabbit, dog, mice et cetera). See, for example, McLetchie, J.R. Coll Physicians Edinb, 32: 134-142, 2002; Lenzen & Panten, Diabetologia, 31: 337-342, 1988; Shaw et al., Lancet, 11: 384-386, 1943; Goldner & Gomori, Endocrinology, 35: 241-268, 1943.
(§3) 1). Saline solution, 1 ml/kg, per orally, daily for 5 days (control group); 2). Stevioside, 20 mg/kg, orally, daily for 5 days; 3). Sodium salt of 3α,7α-dihydroxy-12-oxo-5β-cholanate (monoketocholic acid-MKC), 4 mg/kg, orally, daily for 5 days; and 4). 1 ml/kg of the composition described in Example 1, orally, daily for 5 days.
(§4) 15 minutes after the 5th dose, the animals were exposed to an oral glucose tolerance test (OGTT) using 4 g/kg, orally. Glucose blood concentrations were measured before the treatment, after the 5th dose, before OGTT, and 30 minutes after OGTT. Then the animals were anaesthetised with urethane injected intraperitoneally, 750 mg/kg, and blood samples for further biochemical analyses were taken by cardiopunction.

diabetic Wistar rats = assay: Blood glucose and OGTT after 5 days oral treatment, alloxan-diabetic rats; settings: for Glucose blood concentration, After OGTT / Glucose blood concentration, After treatment (one dose daily for 5 days) / Glucose blood concentration, Before treatment: diabetic Wistar rats (alloxan), n = 8; for Glucose blood concentration, After OGTT: 30 minutes after OGTT (glucose 4 g/kg orally) after the 5th dose; for Glucose blood concentration, After treatment (one dose daily for 5 days): MKH 4 mg/kg, stevioside 20 mg/kg orally per day, before OGTT; for Glucose blood concentration, Before treatment: baseline of the group before treatment; for Effect on glucose levels under increased glucose loading during the OGTT (in words): substances given alone, rat group not given
Procedure: as §1, §2, §3
(§5) In the diabetic rat the criterion for successful diabetes induction was blood glucose greater than 20 mmol/L on the third day after the last alloxan dose after 3 hours of fasting with free access to water.
as §4

normoglycaemic rats [2] = assay: C peptide serum concentration, normoglycaemic rats; settings: for Effect on C peptide levels (in words): non-diabetic rats, 5 days treatment; for C peptide serum concentration: normoglycaemic rats, doses daily for 5 days orally, n = 8
Procedure: as §1, §2, §3, §4
(§6) All biochemical analyses of serum were done by standard procedures, as recommended by the International Federation for Clinical Chemistry (IFCC), on automatic spectrophotometer LISA 300 plus with International Quality Control. The following were measured in serum:
(§7) 1). Triglycerides concentration (GPO-PAP kit obtained from Boehringer Mannheim GmbH (Mannheim, Germany) in accordance with the manufacturers instructions) 2). Total low density lipoprotein (LDL) and high density lipoprotein (HDL) 3). Cholesterol concentration (CHOD-PAP kit obtained from Boehringer Mannheim GmbH (Mannheim, Germany) in accordance with the manufacturers instructions); and 4). C-peptide concentration.

diabetic rats [3] = assay: C peptide serum concentration, diabetic rats; settings: for C peptide serum concentration: doses daily for 5 days orally, n = 8
Procedure: as §1, §2, §3, §5
15 minutes after the 5th dose, the animals were exposed to an oral glucose tolerance test (OGTT) using 4 g/kg, orally. Glucose blood concentrations were measured before the treatment, after the 5th dose, before OGTT, and 30 minutes after OGTT. […]
All biochemical analyses of serum were done by standard procedures, as recommended by the International Federation for Clinical Chemistry (IFCC), on automatic spectrophotometer LISA 300 plus with International Quality Control. The following were measured in serum: […]

normoglycaemic rats [4] = assay: Serum cholesterol and lipid profile after 5 days treatment, normoglycaemic rats; settings: for Change in HDL serum cholesterol concentration (in words) / Change in LDL serum cholesterol concentration versus control (in words) / Change in total cholesterol serum concentration (in words): normoglycaemic (non-diabetic) rats, 5 days treatment; for HDL serum cholesterol concentration / LDL serum cholesterol concentration / Serum total cholesterol concentration / LDL:HDL Ratio (ratios of means): normoglycaemic rats, n = 8; for HDL serum cholesterol concentration / LDL serum cholesterol concentration / Serum total cholesterol concentration: 5 days treatment orally; for LDL:HDL Ratio (ratios of means): after 5 days treatment
Procedure: as §3, §4, §6, §7
(§8) The composition from Example 1 was trialled to see the effect on cholesterol levels and on serum lipid profiles. Generally the desired outcome was a decrease in low density lipoprotein (LDL), with no concomitant decrease in high density lipoprotein (HDL). It was also hypothesised that there would be a compatibility with glycaemic effects shown in Example 2.
(§9) The experimental procedures were essentially those described in Example 2.

diabetic rats [5] = assay: Serum cholesterol and lipid profile after 5 days treatment, diabetic rats; settings: for HDL cholesterol serum concentration / LDL cholesterol serum concentration / Serum total cholesterol concentration: 5 days treatment orally; for HDL cholesterol serum concentration / LDL cholesterol serum concentration / Serum total cholesterol concentration / LDL:HDL Ratio (ratios of means): n = 8; for LDL:HDL Ratio (ratios of means): after 5 days treatment
Procedure: as §2, §3, §4, §6, §7, §8, §9

diabetic rats [6] = assay: Serum cholesterol concentrations after 7 day oral treatment of diabetic rats (lovastatin, MKH, combination); settings: for HDL cholesterol / LDL cholesterol / LDL/HDL ratio / Total cholesterol: 7 day oral treatment, lovastatin 20 mg/kg/day, MKH 2 mg/kg/day, n = 8; for Change in total cholesterol (in words): 7 days oral treatment
[7] = 7 days treatment, MKH 2 mg/kg, lovastatin 20 mg/kg orally

Compound | Glucose blood concentration, After OGTT [1] | Glucose blood concentration, After treatment (one dose daily for 5 days) [1] | Glucose blood concentration, Before treatment [1] | Glucose blood concentration, After OGTT (diabetic Wistar rats) | Glucose blood concentration, After treatment (one dose daily for 5 days) (diabetic Wistar rats) | Glucose blood concentration, Before treatment (diabetic Wistar rats) | Effect on glucose levels under increased glucose loading during the OGTT (in words) (diabetic Wistar rats) | Effect on C peptide levels (in words) (normoglycaemic rats [2]) | C peptide serum concentration (normoglycaemic rats [2]) | C peptide serum concentration (diabetic rats [3]) | Change in HDL serum cholesterol concentration (in words) (normoglycaemic rats [4]) | Change in LDL serum cholesterol concentration versus control (in words) (normoglycaemic rats [4]) | Change in total cholesterol serum concentration (in words) (normoglycaemic rats [4]) | HDL serum cholesterol concentration (normoglycaemic rats [4]) | LDL serum cholesterol concentration (normoglycaemic rats [4]) | Serum total cholesterol concentration (normoglycaemic rats [4]) | LDL:HDL Ratio (ratios of means) (normoglycaemic rats [4]) | Change in LDL cholesterol levels (in words) (diabetic rats [5]; 5 days treatment) | Change in total cholesterol serum concentration (in words) (diabetic rats [5]; 5 days treatment) | HDL cholesterol serum concentration (diabetic rats [5]) | further results
C=C1C[C@@]23CC[C@H]4[C@@](C)(CCC[C@@]4(C)C(=O)O[C@@H]4O[C@H](CO)[C@@H](O)[C@H](O)[C@H]4O)[C@@H]2CC[C@]1(O[C@@H]1O[C@H](CO)[C@@H](O)[C@H](O)[C@H]1O[C@@H]1O[C@H](CO)[C@@H](O)[C@H](O)[C@H]1O)C3 [Stevioside] | 11.4 ± 2.9 mmol/L | 5.47 ± 0.67 mmol/L | 6.95 ± 0.99 mmol/L | 28.03 ± 1.08 mmol/L | 22.53 ± 1.07 mmol/L | 25.14 ± 1.87 mmol/L | beneficial effects | Neither stevioside or 3α,7α-dihydroxy-12-oxo-5β-cholanate alone had statistically significant effects | 294 ± 93.2 pmol/L | 230.12 ± 28.45 pmol/L | no significant changes | significantly decreased (one third of control values) | no significant changes | 0.78 ± 0.18 mmol/L | 0.1 ± 0.08 mmol/L | 1.1 ± 0.30 mmol/L | 0.13 | highly significant decrease | no significant changes | 0.85 ± 0.20 mmol/L | Effect on C-peptide (in words) (diabetic rats [3]; 5 days treatment): significant increases; LDL cholesterol serum concentration (diabetic rats [5]): 0.42 ± 0.09 mmol/L; Serum total cholesterol concentration (diabetic rats [5]): 1.39 ± 0.31 mmol/L; LDL:HDL Ratio (ratios of means) (diabetic rats [5]): 0.49
CC[C@H](C)C(=O)O[C@H]1C[C@@H](C)C=C2C=C[C@H](C)[C@H](CC[C@@H]3C[C@@H](O)CC(=O)O3)[C@H]21 [Lovastatin, reference compound] |  |  |  |  |  |  |  |  |  |  |  |  |  |  |  |  |  |  |  |  | HDL cholesterol (diabetic rats [6]): 0.74 ± 0.16 mmol/L; LDL cholesterol (diabetic rats [6]): 0.09 ± 0.17 mmol/L; LDL/HDL ratio (diabetic rats [6]): 0.15 ± 0.29; Total cholesterol (diabetic rats [6]): 1.19 ± 0.06 mmol/L; Change in total cholesterol (in words) (diabetic rats [6]): reduced total cholesterol by a similar amount; Change in HDL levels (in words) (diabetic rats [6]; [7]): reduced HDLs significantly
C[C@H](CCC(=O)[O-])[C@H]1CC[C@H]2[C@@H]3[C@H](O)C[C@@H]4C[C@H](O)CC[C@]4(C)[C@H]3CC(=O)[C@]12C.[Na+] [MKH, Sodium salt of 3α,7α-dihydroxy-12-oxo-5β-cholanate] | 8.52 ± 3.19 mmol/L | 5.42 ± 1.15 mmol/L | 6.82 ± 2.15 mmol/L | 27.05 ± 1.17 mmol/L | 22.34 ± 1.15 x mmol/L | 24.73 ± 2.15 mmol/L | beneficial effects | Neither stevioside or 3α,7α-dihydroxy-12-oxo-5β-cholanate alone had statistically significant effects | 230.87 ± 80.64 pmol/L | 178.38 ± 34.25 pmol/L | no significant changes | significantly decreased (one third of control values) | no significant changes | 0.73 ± 0.20 mmol/L | 0.11 ± 0.04 mmol/L | 0.99 ± 0.30 mmol/L | 0.01 | decreases in LDL levels and while these were not statistically significant | no significant changes | 0.50 ± 0.12 !! mmol/l | Effect on glucose levels before and after the OGTT (in words) (diabetic Wistar rats; diabetic rats, 5 days treatment): significant decrease; Change in LDL:HDL ratio (in words) (diabetic rats [5]; 5 days treatment): slight increase; LDL cholesterol serum concentration (diabetic rats [5]): 0.56 ± 0.17 mmol/L; Serum total cholesterol concentration (diabetic rats [5]): 1.03 ± 0.26 mmol/L; Change in HDL levels (in words) (diabetic rats [5]; 5 days treatment, MKH 4 mg/kg): A decrease was observed; LDL:HDL Ratio (ratios of means) (diabetic rats [5]): 1.12; HDL cholesterol (diabetic rats [6]): 0.89 ± 0.14 mmol/L; LDL cholesterol (diabetic rats [6]): 0.03 ± 0.04 mmol/L; LDL/HDL ratio (diabetic rats [6]): 0.04 ± 0.04; Total cholesterol (diabetic rats [6]): 1.21 ± 0.14 mmol/L; Change in total cholesterol (in words) (diabetic rats [6]): reduced total cholesterol by a similar amount; Change in HDL levels (in words) (diabetic rats [6]; [7]): this effect was not observed; also recorded: did not do so; Change in LDL levels (in words) (diabetic rats [6]; [7]): very highly significant decrease; also recorded: significantly greater than that achieved by Lovastatin; Change in LDL:HDL ratio (in words) (diabetic rats [6]; Day 7): significant decrease
